Measurements: ChEMBL document CHEMBL4400545 (Bioorg Med Chem, 2019)

Experiments:
[1] = molecular target: T1, Sodium- and chloride-dependent GABA transporter 1 (Rattus norvegicus, UniProt P23978); experiment: Inhibition of GAT-1 in rat brain homogenate; format: tissue-based
[2] = molecular target: T2, Sodium- and chloride-dependent GABA transporter 1 (Mus musculus, UniProt P31648); experiment: Inhibition of mouse GAT-1 expressed in HEK293 cells assessed as decrease in [3H]GABA uptake preincubated for 25 mins followed by [3H]GABA addition and measured after 4 mins by scintillation counting analysis; format: cell-based
[3] = molecular target: T2, Sodium- and chloride-dependent GABA transporter 1; experiment: Binding affinity to mouse GAT-1 expressed in HEK293 cells after 4 hrs in presence of NO711 by LC-ESI-MS/ms analysis; format: cell-based
[4] = molecular target: T3, GABA transporter 4 (Mus musculus) (UniProt P31650); experiment: Inhibition of mouse GAT-4 expressed in HEK293 cells assessed as remaining [3H]GABA uptake at 100 uM preincubated for 25 mins followed by [3H]GABA addition and measured after 4 mins by scintillation counting analysis; format: cell-based
T3 sequence (whole entry): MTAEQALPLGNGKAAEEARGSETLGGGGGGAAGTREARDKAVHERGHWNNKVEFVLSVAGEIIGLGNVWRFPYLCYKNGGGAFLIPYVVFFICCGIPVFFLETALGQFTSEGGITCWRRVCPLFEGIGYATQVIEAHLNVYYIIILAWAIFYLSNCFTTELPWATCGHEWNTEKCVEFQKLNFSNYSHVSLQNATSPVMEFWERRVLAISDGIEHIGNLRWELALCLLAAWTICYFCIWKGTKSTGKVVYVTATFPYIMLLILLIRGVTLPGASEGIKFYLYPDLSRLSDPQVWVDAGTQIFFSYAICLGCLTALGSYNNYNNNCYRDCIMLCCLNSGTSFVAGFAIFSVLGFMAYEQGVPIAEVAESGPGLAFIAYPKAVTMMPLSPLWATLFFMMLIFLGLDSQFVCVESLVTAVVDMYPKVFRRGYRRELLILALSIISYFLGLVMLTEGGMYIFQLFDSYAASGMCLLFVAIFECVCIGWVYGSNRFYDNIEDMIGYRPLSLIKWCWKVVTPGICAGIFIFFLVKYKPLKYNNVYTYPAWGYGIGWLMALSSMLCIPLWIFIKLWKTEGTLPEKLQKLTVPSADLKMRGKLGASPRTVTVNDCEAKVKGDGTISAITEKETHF

[5] = system: Sodium- and chloride-dependent betaine transporter (Mus musculus); experiment: Inhibition of mouse GAT-2 expressed in HEK293 cells assessed as remaining [3H]GABA uptake at 100 uM preincubated for 25 mins followed by [3H]GABA addition and measured after 10 mins by scintillation counting analysis
[6] = system: Sodium- and chloride-dependent GABA transporter 2 (Mus musculus); experiment: Inhibition of mouse GAT-3 expressed in HEK293 cells assessed as remaining [3H]GABA uptake at 100 uM preincubated for 25 mins followed by [3H]GABA addition and measured after 4 mins by scintillation counting analysis
[7] = molecular target: T4, GABA transporter 4 (Mus musculus, UniProt P31650); experiment: Inhibition of mouse GAT-4 expressed in HEK293 cells assessed as decrease in [3H]GABA uptake preincubated for 25 mins followed by [3H]GABA addition and measured after 4 mins by scintillation counting analysis; format: cell-based
T4 sequence (P31650 whole entry): T3 sequence (whole entry)

[8] = molecular target: T1, Sodium- and chloride-dependent GABA transporter 1; experiment: Inhibition of GAT-1 in rat brain homogenate assessed as decrease in [3H]GABA uptake preincubated for 8 mins followed by [3H]GABA addition and measured after 8 mins by scintillation counting analysis; format: tissue-based
[9] = molecular target: Sodium- and chloride-dependent GABA transporter 1 (Mus musculus) (UniProt P31648); experiment: Inhibition of mouse GAT-1 assessed as percentage of remaining specific binding of NO711 at 100 nM after 4 hrs by LC-ESI-MS/ms analysis relative to control
[10] = molecular target: Sodium- and chloride-dependent GABA transporter 1 (Mus musculus) (UniProt P31648); experiment: Inhibition of mouse GAT-1 assessed as percentage of remaining specific binding of NO711 at 1 uM after 4 hrs by LC-ESI-MS/ms analysis relative to control
[11] = molecular target: Sodium- and chloride-dependent GABA transporter 1 (Mus musculus) (UniProt P31648); experiment: Inhibition of mouse GAT-1 assessed as percentage of remaining specific binding of NO711 at 4 uM after 4 hrs by LC-ESI-MS/ms analysis relative to control
[12] = molecular target: Sodium- and chloride-dependent GABA transporter 1 (Mus musculus) (UniProt P31648); experiment: Inhibition of mouse GAT-1 assessed as percentage of remaining specific binding of NO711 at 40 uM after 4 hrs by LC-ESI-MS/ms analysis relative to control

SMILES	IC50 [2] [nM]	Ki [3] [nM]	Activity [9]	Activity [10] [%]	further results
O=C(O)[C@@H]1CCCN(CCO/N=C(\Cc2ccccc2F)c2ccccc2F)C1					IC50 [1]: 80 nM
O=C(O)C1=CCCN(CCO/N=C/c2ccccc2-c2ccc(Cl)cc2Cl)C1	5.37	5.13			
O=C(O)[C@@H]1CCCN(CCO/N=C/c2ccccc2-c2ccc(F)cc2Cl)C1	32.4	2.82			Activity [4]: 50.9%; Activity [5]: 50.1%; Activity [6]: 77.7%
O=C(O)C1=CCCN(CCO/N=C/c2ccccc2-c2ccc(F)cc2F)C1	56.2	4.47			
O=C(O)C1=CCCN(CCON=C(c2ccccc2)c2ccccc2)C1					IC50 [8]: 40 nM
O=C(O)C1CCCN(CCO/N=C/c2ccccc2-c2ccc(Cl)cc2Cl)C1 (racemic)	38.9	10.5	Below limit of detection	5	IC50 [7]: 70800 nM
O=C(O)C1CCCN(CCO/N=C/c2ccccc2-c2ccc(F)cc2F)C1 (racemic)	85.1	13.8	16%	17	Activity [4]: 62.5%; Activity [5]: 78.3%; Activity [6]: 90.9%
O=C(O)C1CCCN(CCO/N=C/c2cc(F)ccc2-c2ccc(Cl)cc2Cl)C1 (racemic)	170	17	Below limit of detection	16	IC50 [7]: 32400 nM
O=C(O)C1CCCN(CCO/N=C/c2sccc2-c2ccc(Cl)cc2Cl)C1 (racemic)	28.2	11.7	Below limit of detection	12	IC50 [7]: 72400 nM
NOCCN1CCCC(C(=O)O)C1 (racemic)					Activity [11]: 99%; Activity [12]: 92%

Now from value to compound, other results behind:

IC50 [2] [nM]	Ki [3] [nM]	Activity [9]	Activity [10] [%]	SMILES	further results
102	5.89			O=C(O)[C@@H]1CCCN(CCO/N=C/c2ccccc2-c2ccc(F)cc2F)C1	Activity [4]: 62.5%; Activity [5]: 56.6%; Activity [6]: 75.5%
60.3	5.89			O=C(O)[C@@H]1CCCN(CCO/N=C/c2ccccc2-c2ccc(Cl)cc2Cl)C1	IC50 [7]: 63100 nM
66.1	10	Below limit of detection	11	O=C(O)C1CCCN(CCO/N=C/c2ccccc2-c2ccc(F)cc2Cl)C1 (racemic)	Activity [4]: 80.9%; Activity [5]: 61.6%; Activity [6]: 62.6%
	55			Cc1ccsc1C(=CCCN1CCC[C@@H](C(=O)O)C1)c1sccc1C [TIAGABINE]	
